In patent US8993585B2, “Cyclic amine substituted pyrimidinediamines as PKC inhibitors” (Rigel Pharmaceuticals, Inc., priority 2007, dated 2015):

Tested on: Human primary T cells
Experiment: IL-2 ELISA, Human Primary T Cell, Anti-CD3+CD28+ (Example 3)
Assay type: cell-based
Settings: anti-CD3+CD28 stimulation
How it was run: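 IL-2 was read by ELISA after stimulation on wells pre-coated with 1 ug/ml αCD3 and 5 μg/ml αCD28. Before this, 100,000 human primary T cells per well spent 1 h at 37 °C with test compound in Yssel's medium. The counter-screen replaced antibody stimulation with PMA (0.5 ng/ml final) and ionomycin (0.1 uM final).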

SMILES	IC50 (24 hours) [nM]	IC50 (Homo sapiens, T-cell, 24 h) [nM]	further results
CN1C(C)(C)CC(Nc2nc(Nc3cccc(NS(C)(=O)=O)c3)ncc2F)CC1(C)C [Compound I-243]	684		
CN1C(C)(C)CC(Nc2nc(N[C@@H]3CCc4ccccc43)ncc2F)CC1(C)C [II-84]		17500	
CN1C(C)(C)CC(Nc2nc(Nc3ccc(OCCN4CCOCC4)c(Cl)c3)ncc2F)CC1(C)C [Compound I-368]	297		
CN1C(C)(C)CC(Nc2nc(Nc3ccc(N4CCN(S(C)(=O)=O)CC4)c(C(F)(F)F)c3)ncc2C(F)(F)F)CC1(C)C [Compound I-88]	287		
COc1cc(Nc2ncc(F)c(NC3CC(C)(C)N(CCC(=O)O)C(C)(C)C3)n2)cc(OC)c1 [Compound I-302]		25100	
CCN1CCN(c2cc(Nc3ncc(F)c(NC4CC(C)(C)N(C)C(C)(C)C4)n3)ccc2Cl)CC1 [Compound I-41]	2630		
CC1(C)CC(Nc2nc(Nc3cc(OCC(F)(F)F)cc(OCC(F)(F)F)c3)ncc2C(N)=O)CC(C)(C)N1 [Compound I-408]	1040		
Cc1ccc(Nc2ncc(F)c(NC3CC(C)(C)N(CCC(=O)O)C(C)(C)C3)n2)cc1C#N [Compound I-306]		10500	
CN1CCN(c2ccc(Nc3ncc([N+](=O)[O-])c(NC4CC(C)(C)N(C)C(C)(C)C4)n3)cc2C(F)(F)F)CC1 [Compound I-74]	657		
Cc1cc(Nc2ncc(F)c(NC3CC(C)(C)N(C)C(C)(C)C3)n2)ccc1-c1cnn(C)c1 [Compound I-151]	635		
COc1ccc(Nc2ncc(F)c(NC3CC(C)(C)N(C)C(C)(C)C3)n2)cc1F [Compound I-127]	1140		
CC1(C)CC(Nc2nc(Nc3cc(Cl)cc(Cl)c3)ncc2F)CC(C)(C)N1CCC(=O)O [Compound I-304]		9510	
CC1CC(c2ccc(Nc3ncc(F)c(NC4CC(C)(C)N(C)C(C)(C)C4)n3)cc2)CC(C)O1 (stereo not shown) [Compound I-222]	1530		
CN1C(C)(C)CC(Nc2nc(Nc3ccc(Cl)c(Cl)c3)ncc2F)CC1(C)C [Compound I-336]	2040		
CN1C(C)(C)CC(N(Cc2cc3c(cc2Br)OCO3)c2nc(Nc3ccc4c(c3)OCCO4)ncc2F)CC1(C)C [II-90]		5580	
CN1C(C)(C)CC(Nc2nc(Nc3cc(-c4ccncc4)cc(C(F)(F)F)c3)ncc2F)CC1(C)C [Compound I-201]	522		
Cc1cnc(Nc2ccc(N3CCN(C)CC3)c(Cl)c2)nc1NC1CC(C)(C)N(C)C(C)(C)C1 [Compound I-29]	463		
COc1c(C)cc(Nc2ncc(F)c(NC3CC(C)(C)N(C)C(C)(C)C3)n2)cc1C [Compound I-131]	629		
COc1cc(C)c(Nc2ncc(F)c(NC3CC(C)(C)N(C)C(C)(C)C3)n2)cc1OC [Compound I-380]	19500		
COC(=O)CCN1C(C)(C)CC(Nc2nc(Nc3ccc(OC)c(OC)c3)ncc2F)CC1(C)C [Compound I-291]		22300	
COc1cc(Nc2ncc(F)c(NC3CC(C)(C)N(C)C(C)(C)C3)n2)cc(OCCN2CCOCC2)c1 [Compound I-431]		450	
CN1C(C)(C)CC(N(Cc2ccccc2)c2nc(Nc3ccc4c(c3)OCCO4)ncc2F)CC1(C)C [II-86]			IC50 (T-cell, 24 hours): 1260 nM
CN1C(C)(C)CC(Nc2nc(Nc3ccc(OC(F)(F)F)c(-c4cc5ccccc5s4)c3)ncc2F)CC1(C)C [Compound I-211]	1700		
CCOC(=O)c1cnc(Nc2ccc(OC)c(Cl)c2)nc1NC1CC(C)(C)N(C)C(C)(C)C1 [Compound I-80]	2690		

SMILES	IC50 (24 hours) [nM]	IC50 (Homo sapiens, T-cell, 24 h) [nM]	further results
COc1ccc(Nc2ncc(Br)c(NC3CC(C)(C)N(C)C(C)(C)C3)n2)cc1C(F)(F)F [Compound I-272]	826		
COc1ccc(Nc2ncc(C(N)=O)c(NC3CC(C)(C)N(C)C(C)(C)C3)n2)cc1Cl [Compound I-85]	631		
COC(=O)C=CN1C(C)(C)CC(Nc2nc(Nc3cc(OC)cc(OC)c3)ncc2F)CC1(C)C [Compound I-298]	1080		
CN1C(C)(C)CC(Nc2nc(Nc3ccc(N4CCNCC4)c(C(F)(F)F)c3)ncc2[N+](=O)[O-])CC1(C)C [Compound I-75]	11300		
COCCOc1cc(Nc2ncc(F)c(NC3CC(C)(C)N(C)C(C)(C)C3)n2)ccc1OC [Compound I-413]	6150		
CC1(C)CC(Nc2nc(Nc3ccc4c(c3)oc(=O)n4CCN3CCOCC3)ncc2F)CC(C)(C)N1 [II-168]		5600	
CN1C(C)(C)CC(Nc2nc(Nc3cc(-c4cccnc4)cc(C(F)(F)F)c3)ncc2F)CC1(C)C [Compound I-202]	615		
CN1C(C)(C)CC(Nc2nc(Nc3ccc4c(c3)OC(C)(C)O4)ncc2F)CC1(C)C [II-103]		3690	
Cc1ccc(Nc2ncc(F)c(N(Cc3ccc(-c4ccccc4)cc3)C3CC(C)(C)N(C)C(C)(C)C3)n2)cc1C#N [Compound I-318]		2510	
CN1C(C)(C)CC(Nc2nc(Nc3ccc4c(c3)n(C)c(=O)n4C)ncc2F)CC1(C)C [II-56]		968	
COC(=O)CCN1C(C)(C)CC(Nc2nc(Nc3ccc4c(c3)OCCO4)ncc2F)CC1(C)C [II-10]		7240	
COc1cc(Nc2ncc(F)c(NC3CC(C)(C)NC(C)(C)C3)n2)cc(-n2cnnn2)c1 [Compound I-388]	110		
CN1C(C)(C)CC(Nc2nc(Nc3nc(C(F)(F)F)co3)ncc2F)CC1(C)C [II-134]		16000	
COc1ccc(Nc2ncc(F)c(NC3CC(C)(C)N(C)C3(C)C)n2)cc1Cl (stereo not shown) [Compound I-280, 5-Fluoro-N2-(3-chloro-4-methoxy)phenyl-N4-(1,2,2,5,5-pentamethylpyrrolidin-3-yl)-2,4-pyrimidinediamine]	2730		
COc1cc(Nc2ncc(F)c(NC3CC(C)(C)N(C)C(C)(C)C3)n2)cc(OC)c1 [Compound I-307]	327		
CN1C(C)(C)CC(Nc2nc(Nc3ccc(N4CCN(S(C)(=O)=O)CC4)c(Cl)c3)ncc2[N+](=O)[O-])CC1(C)C [Compound I-73]	665		
COc1cc(Nc2ncc(C(N)=O)c(NC3CC(C)(C)NC(C)(C)C3)n2)cc(-n2nnnc2C)c1 [Compound I-387]	3470		
CCn1c(=O)oc2ccc(Nc3ncc(F)c(NC4CC(C)(C)N(C)C(C)(C)C4)n3)cc21 [II-173]		1320	
CN1C(C)(C)CC(Nc2ccnc(Nc3ccc(N4CCN(S(C)(=O)=O)CC4)c(C(F)(F)F)c3)n2)CC1(C)C [Compound I-228]	720		
CCN1C(=O)COc2cc(Nc3ncc(C#N)c(NC4CC(C)(C)N(C)C(C)(C)C4)n3)ccc21 [II-71]		145	
Cc1nnnn1-c1ccc(Nc2ncc(F)c(NC3CC(C)(C)N(C)C(C)(C)C3)n2)cc1 [Compound I-454]	6250		
CCCc1nnnn1-c1cc(Nc2ncc(F)c(NC3CC(C)(C)N(C)C(C)(C)C3)n2)ccc1OC [Compound I-395]	100		
CN1C(C)(C)CC(Nc2nc(Nc3nc4ccc(F)cc4s3)ncc2F)CC1(C)C [II-131]		990	
COc1cc(Nc2ncc(F)c(NC3C[C@H](C)N(C)[C@@H](C)C3)n2)cc(-n2nnnc2C)c1 (stereo partly drawn) [IV-1, 5-Fluoro-N2-[3-methoxy-5-(5-methyl-tetrazol-1-yl)]phenyl-N4-(1,2,6,-trimethylpiperidin-4-yl)-2,4-pyrimidinediamine, trans isomer]		176	

SMILES	IC50 (24 hours) [nM]	IC50 (Homo sapiens, T-cell, 24 h) [nM]	further results
CN1C(C)(C)CC(Nc2nc(Nc3ccc4c(c3)OCCO4)ncc2C#C[Si](C)(C)C)CC1(C)C [II-150]			IC50 (T-cell, 24 hours): 3580 nM
CN1CCN(C(=O)c2ccc(Nc3ncc(F)c(NC4CC(C)(C)N(C)C(C)(C)C4)n3)cc2Cl)CC1 [Compound I-44]	2010		
COc1cc(Nc2ncc(OC)c(NC3CC(C)(C)N(C)C(C)(C)C3)n2)cc(OC)c1 [Compound I-423]		3500	
CCOC(=O)c1cnc(Nc2ccc(N3CCN(S(C)(=O)=O)CC3)c(Cl)c2)nc1NC1CC(C)(C)N(C)C(C)(C)C1 [Compound I-84]	6850		
COC(=O)N1CCN(c2cc(Nc3ncc(F)c(NC4CC(C)(C)N(C)C(C)(C)C4)n3)ccc2C(F)(F)F)CC1 [Compound I-214]	540		
COc1cc(Nc2ncc(C(N)=O)c(NC3CC(C)(C)N(C)C(C)(C)C3)n2)cc(-n2cnnn2)c1 [Compound I-390]	680		
CN1C(C)(C)CC(Nc2nc(Nc3ccc4c(c3)OC(C)(C)C(=O)N4CCF)ncc2C#N)CC1(C)C [II-79]		152	
CN1C(C)(C)CC(Nc2nc(Nc3ccc(C#N)c(Cl)c3)ncc2C(F)(F)F)CC1(C)C [Compound I-33]	532		
CN1C(C)(C)CC(Nc2nc(Nc3cnc(N4CCOCC4)c(Cl)c3)ncc2F)CC1(C)C [Compound I-290]	596		
COc1ccc(Nc2ncc(F)c(NC3CC(C)(C)N(C)C(C)(C)C3)n2)cc1OCCN(C)C [Compound I-421]	4630		
CN1C(C)(C)CC(Nc2nc(Nc3ccc(N4CCCCC4)c(C(F)(F)F)c3)ncc2F)CC1(C)C [Compound I-233]	1600		
CCN1C(=O)C(C)(C)Oc2cc(Nc3ncc(C(F)(F)F)c(NC4CC(C)(C)N(C)C(C)(C)C4)n3)ccc21 [II-50]		91.8	
Cc1ccc(Nc2ncc(F)c(NC3CC(C)(C)N(C)C(C)(C)C3)n2)cc1-c1cc2ccccc2s1 [Compound I-189]	1220		
CN1C(C)(C)CC(Nc2nc(Nc3ccc4cn[nH]c4c3)ncc2F)CC1(C)C [II-40]	2970		
CN1C(C)(C)CC(Nc2nc(Nc3ccc(F)c(-c4ccncc4)c3)ncc2F)CC1(C)C [Compound I-191]	700		
COc1ccc(Nc2nccc(NC3CC(C)(C)N(C)C(C)(C)C3)n2)cc1Cl [Compound I-226]	1140		
COc1cc(Nc2ncc(F)c(NC3CC(C)(C)N(C)C(C)(C)C3)n2)cc(-n2nnnc2C)c1 [Compound I-358]		29.5	
CN1C(C)(C)CC(N(Cc2ccc(-c3ccccc3)cc2)c2nc(Nc3ccc4c(c3)OCCO4)ncc2F)CC1(C)C [II-88]		2480	
COc1cc(Nc2ncc(C#N)c(NC3CC(C)(C)NC(C)(C)C3)n2)cc(-n2nnnc2C)c1 [Compound I-402]	470		
CN1C(C)(C)CC(Nc2nc(Nc3ccc(F)c(-c4cnn(C)c4)c3)ncc2F)CC1(C)C [Compound I-182]	675		
COC(=O)/C=C/N1C(C)(C)CC(Nc2nc(Nc3ccc(OC)c(OC)c3)ncc2F)CC1(C)C [Compound I-297]	24700		
CN1C(C)(C)CC(Nc2nc(Nc3ccc(OC(F)(F)F)cc3)ncc2F)CC1(C)C [Compound I-231]		1750	
